How the values were obtained:
Format in all cases: cell-based
[1] = tested on: J774 mouse macrophages treated with cAMP to upregulate the expression of ABCA1; test: Cell cholesterol efflux to supplemented human serum, J774 macrophages with ABCA1 upregulated by cAMP; details: human serum supplemented with increasing levels of the substance; 4 hour incubation; FIG. 1B
Protocol: (§1) FIG. 1B is a graph of the percentage of efflux of cell cholesterol after a four hour incubation period of J774 mouse macrophages treated with cAMP to upregulate the expression of ABCA1 with serum supplemented with HDL3 and serum supplemented with Apo AI. Numbers on X axis represent the fold increase of HDL3 or Apo AI with the X axis of 1 being the unsupplemented serum.
For example, in one embodiment of the present invention, an assay to quantitate the contribution of ABCA1 to cellular cholesterol efflux uses a sample of cells, such as transformed mouse macrophages which are grown in monolayers and prelabeled with ^3H-cholesterol. […] The release of the radiolabeled cholesterol is determined after an appropriate incubation time ranging from 1 to 12 hours. The ABCA1 contribution to efflux is determined by subtracting the efflux obtained in ABCA1 negative cultures from that obtained from the ABCA1 positive cultures.
FIGS. 1A–1F illustrate that the expression of SR-BI and ABCA1 independently in cultured cells can be used to detect cell cholesterol efflux to human sera with different levels of apolipoprotein AI, high density lipoprotein (HDL) or high density lipoprotein3 (HDL3). […] The control and supplemented serum samples were then diluted in tissue culture medium and incubated with the indicated cell systems; the efflux of cell cholesterol was measured after a 4 hour incubation period. […]

[2] = tested on: W138VA13 human embryonic lung fibroblasts; test: Cell cholesterol efflux to supplemented human serum, untreated W138VA13 fibroblasts; details: human serum supplemented with increasing levels of the substance; 4 hour incubation; low SR-BI and ABCA1 expression; FIG. 1C
Protocol: as §1, with “1C” for “1B”, “W138VA13 human embryonic lung fibroblasts” for “J774 mouse macrophages treated with cAMP to upregulate the expression of ABCA1”
(§2) FIGS. 1A–1F illustrate that the expression of SR-BI and ABCA1 independently in cultured cells can be used to detect cell cholesterol efflux to human sera with different levels of apolipoprotein AI, high density lipoprotein (HDL) or high density lipoprotein3 (HDL3). […] The control and supplemented serum samples were then diluted in tissue culture medium and incubated with the indicated cell systems; the efflux of cell cholesterol was measured after a 4 hour incubation period.
FIG. 1C is a graph of the percentage of efflux of cell cholesterol after a four hour incubation period of W138VA13 human embryonic lung fibroblasts with serum supplemented with HDL3 and serum supplemented with Apo AI. FIG. 1C illustrates that W138VA13 human embryonic lung fibroblasts have low expression levels of both proteins and cell cholesterol efflux is unresponsive to either type of serum supplementation.

[3] = tested on: W138VA13 human embryonic lung fibroblasts pretreated with 9-cis retanoic acid (9CRA) and 22 hydroxycholesterol to upregulated ABCA1; test: Cell cholesterol efflux to supplemented human serum, W138VA13 fibroblasts with ABCA1 upregulated; details: human serum supplemented with increasing levels of the substance; 4 hour incubation; FIG. 1E
Protocol: (§3) Numbers on X axis represent the fold increase of HDL3 or Apo AI with the X axis of 1 being the unsupplemented serum.
as §2

[4] = tested on: W138VA13 human embryonic lung fibroblasts transfected with SR-BI with ABCA1 upregulated; test: Cell cholesterol efflux to supplemented human serum, W138VA13 fibroblasts with SR-BI transfected and ABCA1 upregulated; details: human serum supplemented with increasing levels of the substance; 4 hour incubation; FIG. 1F
Protocol: as §3, §2

Apo AI: apolipoprotein AI added to human serum in increasing levels
percentage of efflux of cell cholesterol [1]: enhanced cholesterol efflux | percentage of efflux of cell cholesterol [2]: unresponsive | percentage of efflux of cell cholesterol [3]: enhanced | efflux of cell cholesterol [4]: enhanced efflux

Source: patent publication US7029863B2, “Cell culture system for determining the cholesterol efflux potential for serum” (The Children's Hospital of Philadelphia, priority 2001, dated 2006)
